Values quoted from earlier work in publication PMC4096870 (ChemMedChem, 2014).

Compound | IC50 (LYP) [µM] | Ki (YopH) [µM] | kinact (YopH) [s⁻¹] | kinact/KI (YopH) [M⁻¹ s⁻¹]
O=C(Oc1cc(O)cc2c1C[C@@H](OC(=O)c1cc(O)c(O)c(O)c1)[C@@H](c1cc(O)c(O)c(O)c1)O2)c1cc(O)c(O)c(O)c1 [epigallocatechin-3,5-digallate] | 0.05 | – | – | –
O=P(O)(O)C(Br)c1ccccc1 (stereo not drawn) [BBP, α-bromobenzyl phosphonate] | – | 4100 | 0.002 | 0.49
C=CS(=O)(=O)c1ccccc1 [PVS, phenyl vinyl sulfone] | – | 350 | 0.001 | 2.9
C=CS(=O)(=O)Oc1ccccc1 [PVSN, phenyl vinyl sulfonate] | – | 290 | 0.01 | –
